Like-named read-outs stand apart in the source and are kept apart here.
Assays:
[1] = molecular target: T1, human cytochrome P450 family 11B1 (Cyp11B1), 11β-hydroxylase (Homo sapiens, UniProt P15538); experiment: Cyp11B1 (11β-hydroxylase) inhibition in stably transfected Y1-Cyp11B1 cells, substrate 11-deoxycortisol (RSS); assay type: cell-based
T1 construct: the full-length cDNAs for the proteins were subcloned into the multicloning site of pcDNA3.1 (zeo); expressed in transfected cells
T1 sequence (P15538 25-503): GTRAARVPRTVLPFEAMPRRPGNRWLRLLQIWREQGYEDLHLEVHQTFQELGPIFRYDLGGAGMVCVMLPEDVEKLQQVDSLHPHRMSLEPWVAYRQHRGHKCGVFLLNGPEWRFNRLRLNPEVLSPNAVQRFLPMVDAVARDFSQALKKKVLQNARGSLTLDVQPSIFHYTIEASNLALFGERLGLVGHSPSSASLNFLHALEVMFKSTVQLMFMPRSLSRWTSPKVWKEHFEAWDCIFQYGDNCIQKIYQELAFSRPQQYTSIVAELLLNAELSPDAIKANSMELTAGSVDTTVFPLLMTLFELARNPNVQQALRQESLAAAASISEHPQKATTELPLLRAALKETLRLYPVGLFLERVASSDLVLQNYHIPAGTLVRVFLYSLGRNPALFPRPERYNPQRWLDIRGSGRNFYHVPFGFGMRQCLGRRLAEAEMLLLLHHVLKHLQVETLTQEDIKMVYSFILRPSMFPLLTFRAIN
Text: (§1) Plasmid constructs and transfection: To induce expression of human cytochrome P450 family 11B1 (Cyp11B1) and Cyp11B2 enzymes in Y1 cells, the full-length cDNAs for the proteins were subcloned into the multicloning site of pcDNA3.1 (zeo) (Invitrogen, Eggenstein, Germany). The cDNA fragments were isolated by PCR and digested by EcoRI. The individual fragments were ligated into the linearized vectors digested by EcoRI. Human Cyp11B1 and Cyp11B2 enzymes were expressed in Y1 cells using liposome/lipid-mediated DNA transfection. Purified plasmid DNA was mixed with Lipofectamine (Invitrogen) transfection reagents according to the manufacturer's protocol. To generate a stable Y1-Cyp11B1 and Y1-Cyp11B2 cell line, Y1 cells were transfected with the pcDNA3.1 (zeo)-Cyp11B1 and pcDNA3.1 (zeo)-Cyp11B2 vector, respectively.
(§2) Transfected cells were selected with 1000 μg/ml zeocin (Invitrogen). To screen colonies, Western blotting and real-time PCR were used to determine the level of Cyp11B1 and Cyp11B2 expression. Colonies with the highest Cyp11B expression were further tested for their ability to synthesize cortisol or aldosterone from deoxycortisol (RSS) and 11-deoxycorticosterone (DOC), respectively. Experimental protocols were standardized regarding substrate concentrations and incubation periods.
In vitro evaluation of specificity: To evaluate Cyp11B1 and Cyp11B2 inhibition by the inventive compounds, Y1-Cyp11B1 and Y1-Cyp11B2 cells were subcultured on six-well plates (0.5×10^6 cells per well) in 2 ml culture medium.
(§3) The enzyme reaction was started after 24 hours by the addition of 1 ml culture medium containing either 11-deoxycortisol (RSS) or 11-deoxycorticosterone (DOC) as substrate and the corresponding inhibitor. RSS and DOC were dissolved in ethanol to a final test concentration of 1 μM. For determination of IC50 values, the inhibitors were added to the culture medium at concentrations between 0.6 nM and 60 μM and incubated for 48 h. Y1-Cyp11B1 and Y1-Cyp11B2 cells, which were treated in the same way but without inhibitors, served as controls. As further controls, untransfected Y1 cells were also incubated with RSS and DOC, respectively. Both RSS and DOC were obtained from Sigma (Deisenhofen, Germany).

[2] = molecular target: T2, human Cyp11B2, aldosterone synthase (Homo sapiens, UniProt P19099); experiment: Cyp11B2 (aldosterone synthase) inhibition in stably transfected Y1-Cyp11B2 cells, substrate 11-deoxycorticosterone (DOC); assay type: cell-based
T2 construct: the full-length cDNAs for the proteins were subcloned into the multicloning site of pcDNA3.1 (zeo); expressed in transfected cells
T2 sequence (P19099 25-503): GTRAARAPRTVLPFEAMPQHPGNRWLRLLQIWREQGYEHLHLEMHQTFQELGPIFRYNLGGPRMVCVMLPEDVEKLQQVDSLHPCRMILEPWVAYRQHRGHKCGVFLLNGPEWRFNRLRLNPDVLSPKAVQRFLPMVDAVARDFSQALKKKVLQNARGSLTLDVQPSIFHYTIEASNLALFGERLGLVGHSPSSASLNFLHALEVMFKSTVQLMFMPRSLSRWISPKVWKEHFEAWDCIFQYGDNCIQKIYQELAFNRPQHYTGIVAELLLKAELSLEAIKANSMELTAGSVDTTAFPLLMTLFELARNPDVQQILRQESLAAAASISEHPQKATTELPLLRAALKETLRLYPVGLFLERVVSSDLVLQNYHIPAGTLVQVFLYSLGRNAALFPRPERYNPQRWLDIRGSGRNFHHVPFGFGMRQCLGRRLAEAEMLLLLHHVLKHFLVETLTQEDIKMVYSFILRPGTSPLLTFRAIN
Text: as §1, §2
as §3, with “For determination of IC50 values, the inhibitors were added to the culture medium at concentrations between 0.6 nM and 60 μM and incubated for 48 h.” left out

adrenal glands = experiment: Uptake in adrenal glands in mice, ex vivo gamma counting; details: male CD-1 mice; for uptake in adrenal glands compared to IMTO: i.v. 1 μCi (37 kBq), 15, 30, 120 and 240 min, 2a especially after 120 and 240 minutes, 2e at any time point
Method: The uptake of IMTO, (R)-1-[1-(4-iodophenyl)ethyl]-1H-imidazole-5-carboxylic acid ethyl-methyl amide (compound 2a) and (R)-1-[1-(4-iodophenyl)ethyl]-1H-imidazole-5-carboxylic acid azetidinylamide (compound 2e) in adrenal glands in mice in ex vivo experiments has been examined as follows. Male CD-1 mice were injected i.v. with 1 μCi (37 kBq) IMTO, (R)-1-[1-(4-[^125I]iodophenyl)ethyl]-1H-imidazole-5-carboxylic acid ethyl-methyl amide or (R)-1-[1-(4-iodophenyl)ethyl]-1H-imidazole-5-carboxylic acid azetidinylamide (compound 2e). At predefined time points (15 min, 30 min, 120 min, and 240 min) mice were killed (n≧6 per time point) and adrenals were excised and weighed. Radioactivity was measured using a gamma-counter.

[3] = test system: adrenal gland and other organs; experiment: Biodistribution in mice; assay type: in vivo; details: male CD-1 mice, i.v. 37 kBq, 15 min to 4 h
Method: The biodistribution of IMTO, (R)-1-[1-(4-iodophenyl)ethyl]-1H-imidazole-5-carboxylic acid ethyl-methyl amide (compound 2a) and (R)-1-[1-(4-iodophenyl)ethyl]-1H-imidazole-5-carboxylic acid azetidinylamide (compound 2e) has been assessed in mice as follows. Male CD-1 mice were injected iv with 1 μCi (37 kBq) (R)-1-[1-(4-[^125I]iodophenyl)ethyl]-1H-imidazole-5-carboxylic acid ethyl-methyl amide. At predefined time points (15 min, 30 min, 2 h, and 4 h), mice were killed (n 6 per time point). Blood was collected, and heart, lung, liver, intestine, stomach, spleen, kidneys, adrenals, testes, brain and other organs were excised and weighed. Radioactivity was measured using a gamma-counter.

[4] = Metabolization of IMTO in the blood of patients; details: iodometomidate acid identified after few minutes as product of enzymatic hydrolysis
Cyp11B1 = molecular target: T3, Cyp11B1 (Homo sapiens, UniProt P15538); details: in contrast to IMTO; cited from earlier work
T3 sequence (P15538 25-503): T1 sequence (P15538 25-503)

CYP11B2 = molecular target: T4, CYP11B2 (Homo sapiens, UniProt P19099); details: in contrast to IMTO; cited from earlier work
T4 sequence (P19099 25-503): T2 sequence (P19099 25-503)

adrenocortical carcinoma = details: advanced disease, retrospective analyses; cited from earlier work
[5] = Y1-Cyp11B1 cells, 1 μM RSS, 48 h incubation, read-out: IC50 11β-hydroxylase
[6] = Y1-Cyp11B2 cells, 1 μM DOC, 48 h incubation, read-out: IC50 aldosterone synthase

CCN(C)C(=O)c1cncn1[C@H](C)c1ccc(I)cc1 [2a, (R)-1-[1-(4-Iodophenyl)ethyl]-1H-imidazole-5-carboxylic acid ethylmethylamide]
IC50 [1]: 3.9 ± 0.6 nM | IC50 [2]: 4.2 ± 0.37 nM | uptake in adrenal glands compared to IMTO (adrenal glands): increased | biodistribution: organ of predominant uptake [3]: predominately in adrenal gland

CCN(CC)C(=O)c1cncn1[C@H](C)c1ccc(I)cc1 [2b]
IC50 [1]: 36.6 nM | IC50 [2]: 10.9 ± 2.02 nM

C[C@H](c1ccc(I)cc1)n1cncc1C(=O)N1CCC1 [2e, (R)-1-[1-(4-Iodophenyl)ethyl]-1H-imidazole-5-carboxylic acid azetidinylamide]
IC50 [1]: 3.16 ± 0.14 nM | IC50 [2]: 1.22 ± 0.08 nM | uptake in adrenal glands compared to IMTO (adrenal glands): greatly increased | factor of increase of adrenal uptake compared to IMTO (adrenal glands; i.v., after 240 minutes): about 10 | biodistribution: organ of predominant uptake [3]: predominately in adrenal gland

C[C@H](c1ccc(I)cc1)n1cncc1C(=O)N1CCCCC1 [2g]
IC50 [1, 5]: 11.7 nM | IC50 [2, 6]: 5.5 ± 2.2 nM

C[C@H](c1ccc(I)cc1)n1cncc1C(=O)N1CCOCC1 [2h]
IC50 [1, 5]: 805 nM | IC50 [2, 6]: 182 nM

C[C@H](c1ccc(I)cc1)n1cncc1C(=O)N(C)C [2i]
IC50 [1]: > 1000 nM | IC50 [2]: 15.7 nM

C[C@H](c1ccc(I)cc1)n1cncc1C(N)=O [2j]
IC50 [1]: 329 ± 310 nM | IC50 [2]: 1410 ± 2070 nM

C[C@H](c1ccc(I)cc1)n1cncc1C(=O)NCCO [2k]
IC50 [1]: 336 ± 398 nM | IC50 [2]: 221 ± 168 nM

CCCN(C)C(=O)c1cncn1[C@H](C)c1ccc(I)cc1 [2l]
IC50 [1]: 74.7 nM | IC50 [2]: 3.5 ± 7.5 nM

CC(C)N(C)C(=O)c1cncn1[C@H](C)c1ccc(I)cc1 [2m]
IC50 [1]: 78.2 nM | IC50 [2]: 147 ± 61.9 nM

CCCN(CC)C(=O)c1cncn1[C@H](C)c1ccc(I)cc1 [2n]
IC50 [1]: 1320 nM | IC50 [2]: 390 ± 170 nM

Cc1nnc(-c2cncn2[C@H](C)c2ccc(I)cc2)o1 [6a]
IC50 [1, 5]: 10.6 ± 9.2 nM | IC50 [2, 6]: 90.1 nM

COC(=O)c1cncn1[C@H](C)c1ccc(I)cc1 [iodometomidate (IMTO), 4-Iodometomidate, reference compound]
IC50 [1]: 2.6 ± 1.1 nM | IC50 [2]: 2 ± 2.3 nM | biological half-life in the blood of patients [4]: very limited

C[C@H](c1ccc(I)cc1)n1cncc1C(=O)O [iodometomidate acid, (R)-1-[1-(4-Iodophenyl)ethyl]-1H-imidazole-5-carboxylic acid]
affinity to Cyp11B1 (Cyp11B1): little or no affinity | affinity to CYP11B2 (CYP11B2): little or no affinity

Clc1ccc(C(c2ccccc2Cl)C(Cl)Cl)cc1 (centres unmarked) [mitotane]
overall response rate (adrenocortical carcinoma): 26%
